pEC50: −log10 of the molar value.
Experiments:
[1] = molecular target: T1, human GPR40 (Homo sapiens, UniProt O14842); assay: Calcium Flux Primary Assay; assay type: cell-based
T1 construct: expressed in transfected cells; host or cells: HEK293
Procedure: HEK293 cells over expressing the human GPR40 cDNA maintained in Dulbecco's modified Eagle's medium with F12 medium in 3:1 ratio supplemented with 10% FBS and 800 μg/ml geneticin at 37° C. and 5% CO2 are employed for the study. Agonist assays are performed using a Calcium 4 Dye assay kit (Molecular Devices) in the presence (0.1%) or absence of fatty acid free BSA in the assay buffer (1×HBSS (Hank's Balanced Salt Solution) & 20 mM HEPES (4-(2-hydroxyethyl)-1-piperazineethanesulfonic acid). Receptor activation is measured as an increase in intracellular calcium using the Fluorometric Imaging Plate Reader (FLIPR). Maximum change in fluorescence over the base line is used to determine agonist response. EC50 (effective concentration at half the maximal response) value of the compound is calculated using Excel Fit software (version 4; IDBS) by plotting concentration vs relative fluorescence units (RFUs).

[2] = tested on: Min6 cells; assay: Glucose Dependent Insulin Secretion (GDIS) assay, insulinoma cell line Min6; assay type: cell-based, mouse; details: 1 μM plus 25 mM glucose compared to 25 mM glucose alone; 2 h
Procedure: (§1) Because activation of GPR40 is known to result in insulin secretion which is dependent on high glucose concentrations, two separate assay systems (insulinoma cell line and primary rodent islets) are developed to further characterize compounds that are known to increase intracellular calcium in the GPR40 primary assay discussed above.
GDIS assays are performed using the mouse insulinoma cell line Min6. Min6 cells are maintained in Dulbecco's Modified Eagle's Medium (DMEM) containing non-essential amino acids, 10% FBS, […] 2-mercaptoethanol and 1% penicillin and streptomycin at 37° C. plus 5% CO2. On the day of the experiment, the cells are washed twice with 200 μl of pre-warmed Krebs-ringer buffer without glucose. Addition of 200 μL of pre-warmed Krebs-ringer buffer containing 2.5 mM glucose is used to starve the cells followed by the addition of compounds in the presence of a high concentration of glucose (25 mM). The plate is incubated at 37° C. for 2 hours. At the end of the 2 h incubation, the supernatant is gently transferred into a Millipore filter plate and spun at 200 g (gravitational force) for 3 minutes. Insulin is assayed using a Mercodia Insulin estimation kit.

[3] = tested on: pancreatic islets; assay: GDIS assay, primary rodent pancreatic islets of Langerhans; assay type: cell-based; details: different concentrations; compared to 11.2 mM glucose alone; 90 minutes; SD rat islets
Excerpt: as §1
GDIS assays using primary rodent pancreatic islets of Langerhans are also used to characterize exemplified compounds. Pancreatic islets are isolated from male SD (Sprague Dawley) rats by collagenase digestion and Histopaque density gradient separation. The islets are cultured overnight in RPMI-1640 medium with GlutaMAXn (stabilized, dipeptide form of L-glutamine (Invitrogen catalog #61870-010)) to facilitate recovery from the isolation process. Insulin secretion is determined by a 90 minute incubation in EBSS (Earle's Balances Salt Solution) buffer in a 48-well plate. Briefly, islets are first preincubated in EBSS with 2.8 mM glucose for 30 min and are then transferred to a 48-well plate (four islets/well) containing 150 μl 2.8 mM glucose and incubated with 150 μl of EBSS with 2.8 or 11.2 mM glucose in the presence or absence of test compounds for 90 minutes. The buffer is removed from the wells at the end of the incubation and assayed for insulin levels using the Rat Insulin ELISA kit (Mercodia). […]

[4] = molecular target: T2, Gal4 PPARα (Homo sapiens, UniProt Q07869); assay: Gal4 PPARα reporter functional assay (CTF); assay type: cell-based; details: examined up to 10 μM; CV1 cells; luciferase
T2 construct: expressed in transfected cells; host or cells: CV1 (African green monkey kidney)
T2 sequence (Q07869 239-466 limits assumed): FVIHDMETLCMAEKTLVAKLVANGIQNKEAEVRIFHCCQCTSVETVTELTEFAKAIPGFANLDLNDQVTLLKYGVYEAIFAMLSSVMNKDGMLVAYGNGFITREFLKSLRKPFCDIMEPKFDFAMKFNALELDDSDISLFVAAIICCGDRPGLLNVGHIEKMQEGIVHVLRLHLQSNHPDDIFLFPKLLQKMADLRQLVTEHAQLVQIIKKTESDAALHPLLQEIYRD
Excerpt: (§2) Gal4 PPARα, Gal4 PPARδ, and PPARγ reporter functional assays are also used to monitor the selectivity of exemplified compounds. CV1 cells, which are derived from the renal tissue of an African green monkey, are transfected with various receptor and reporter plasmids using Fugene. For the Gal4 PPARα and PPARδ assays, a reporter plasmid containing five tandem copies of the yeast transcription protein Gal4 response element, cloned upstream of a firefly luciferase gene driven by the major late promoter of adenovirus, is transfected together with a Simian Virus 40 (SV40) driven plasmid constitutively expressing a hybrid protein containing the Gal4 DNA binding domain (DBD), and either the PPARα or PPARδ ligand binding. For the PPARγ assay, plasmids encoding PPARγ and RXRα, both driven by a cytomegalovirus (CMV) promoter are transfected together with a plasmid containing luciferase reporter cDNA driven by the TK promoter and a receptor response element (2×PPRE). Cells are transfected in T225 cm^2 cell culture flasks in DMEM media with 5% charcoal-stripped FBS. […] After 24 hours incubation with compounds, cells are lysed and luciferase activity is determined as a measure of receptor activation by luminescence. […] The maximum percent stimulation is determined versus maximum stimulation obtained with 10 μM of an appropriate PPAR agonist reference compound. […]

[5] = molecular target: T3, Gal4 PPARδ (Homo sapiens, UniProt Q03181); assay: Gal4 PPARδ reporter functional assay (CTF); assay type: cell-based; details: examined up to 10 μM; CV1 cells; luciferase
T3 construct: expressed in transfected cells; host or cells: CV1 (African green monkey kidney)
T3 sequence (Q03181 211-439 limits assumed): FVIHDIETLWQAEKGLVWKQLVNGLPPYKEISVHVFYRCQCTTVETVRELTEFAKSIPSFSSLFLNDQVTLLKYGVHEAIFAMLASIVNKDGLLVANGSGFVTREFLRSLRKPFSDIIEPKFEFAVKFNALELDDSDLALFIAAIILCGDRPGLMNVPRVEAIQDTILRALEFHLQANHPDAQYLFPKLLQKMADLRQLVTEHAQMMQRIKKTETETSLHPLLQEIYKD
Excerpt: as §2

T1 sequence (O14842 whole entry): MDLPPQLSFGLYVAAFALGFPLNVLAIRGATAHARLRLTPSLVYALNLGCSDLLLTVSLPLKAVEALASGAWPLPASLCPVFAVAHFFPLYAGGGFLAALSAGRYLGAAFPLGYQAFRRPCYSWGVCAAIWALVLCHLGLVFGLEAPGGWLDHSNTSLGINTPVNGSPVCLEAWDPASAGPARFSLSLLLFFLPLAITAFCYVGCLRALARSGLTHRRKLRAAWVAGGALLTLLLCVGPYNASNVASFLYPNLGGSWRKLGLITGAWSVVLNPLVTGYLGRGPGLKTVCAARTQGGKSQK

pEC50 ([1]; HEK293 cells over expressing human GPR40, FLIPR calcium): 6.73
efficacy ([1]; maximal response compared to the natural ligand, linoleic acid): 91+/−10%
functional activation [4]: No functional activation
functional activation [5]: No functional activation
SMILES: CC#C[C@@H](CC(=O)O)c1ccc(OCc2ccc(CN3CCC4(C=Cc5ccccc54)CC3)cc2)cc1 [Example 1, (3S)-3-(4-{[4-(1′H-Spiro[indene-1,4′-piperidin]-1′-ylmethyl)benzyl]oxy}phenyl)hex-4-ynoic acid]
increase in insulin secretion [2]: two-fold increase
increase in insulin [3]: 2- to 4 fold

Reference: US8383642B2, “Spiropiperidine compounds” (Eli Lilly and Company, priority 2009, dated 2013)
